Measured values: patent US20140227408A1, “MEAT TREATMENT AND PRESERVATION METHOD” (RED MEAT AS, priority 2011, published 2014)
Marks after values point to notes of the source that are not given here.

Tests used:
[1] = Colour L*, a*, b* of treated ground beef, high oxygen packaging (Example 5); parameters: species or system cattle; conditions: citrate High level
Text: (§1) Beef M. semimembranosus (M.S.) and beef fat tissue were collected four days post mortem (Fatland A/S, Oslo, Norway). The packaging day is defined as day zero, however, the tissues were 4 days post mortem on packing day. A piece of meat from proximal end was cut from each muscle in order to measure oxygen consumption, pH and surface colour. Fat tissue from pigs fed rapeseed and vitamin E to enhance the content of polyunsaturated fatty acids were from HKScan (Ruokatalo, Finland). The fat tissue was transported vacuum-packaged and frozen. Samples of minced fat tissue were removed for fatty acid analysis.
The beef muscles were cut into pieces of approximately 10×5 cm and mixed to 14% w/w fat by using the fat tissues. Beef fat and pork fat tissues were ground twice with either raw beef from four young (16-19 months) or four old (46-81 months) cattle. […] The ground meat was blended manually with solutions (all at pH 5.8) with various TCA and glycolytic ingredients (see below).
(§2) To maintain pH at 5.8 the solutions were prepared by mixing the acid form and the corresponding sodium salt of these chemicals.
(§3) 40 g of 0.1 M or 0.05 M solutions were added to ground beef-fat mixture (360 g) to a total weight of 400 g. The solution was quickly and properly stirred into the minced meat and the blended system was subsequently packaged. […] Two reference samples with 40 ml of distilled water added to 360 gram of ground beef were also prepared each of the four production day, i.e. altogether 8 references were prepared. The samples were packaged in either low or high oxygen atmosphere.
(§4) The ground beef was packaged in black amorphous polyethylene terephthalate (APET) trays that were sealed with ethylene vinyl alcohol (EVOH) top films. The trays and films (Wipak Multipet and Wipak Biaxer, both Wipak, Nastola, Finland) had oxygen transmission rates of 7 and 5 cm^3/m^2/24 h at 23° C. at 50% relative humidity. Packaging was carried out within 1 hour after grinding. The samples were stored in darkness at 4° C. for 8 days in a high-oxygen atmosphere (75% oxygen and 25% CO2) and for 13 days in a low-oxygen atmosphere (60% CO2 and 40% N2). These food grade gas mixtures were supplied by AGA (Oslo, Norway).
The colour of the ground meat samples was measured with a Konica Minolta Chroma Meter CR 410 (Konica Minolta Sensing Inc., Osaka, Japan) using the glass light projection tube CR A 33e with wide illumination area (61 mm) and illuminant D65. The instrument was calibrated each day by measuring a white ceramic plate (L*=97.9; a*=0.05; b*=2). All colour measurements were made with 3 replicates (CIE, 1976, “Recommendations on uniform colour spaces-colour difference equations” (Vol. Supplement No. 2 to CIE). Paris, France: Commission Internationale de l'Eclairage).
(§5) The colour of the samples packaged in high O2 was measured after 0, 1, 3, 6 and 8, days of storage from packaging day, while low O2 samples were measured at 0 to 13 days of storage using Minolta and reflectance measurements.
The experimental design is visualized in FIG. 5. A 2^2 design (animal age and type of fat tissue) was split over 4 experimental days (FIG. 5, and Tables 10 and 11). […] 5.

myoglobin in ground beef = assay: Myoglobin states (DMb, OMb, MMb) by reflectance spectra of treated ground beef, high oxygen packaging (Example 5); parameters: species or system cattle; conditions: for DMb / MMb / OMb: citrate High level, high oxygen, adjusted mean ± standard error
Text: as §1
The beef muscles were cut into pieces of approximately 10×5 cm and mixed to 14% w/w fat by using the fat tissues. Beef fat and pork fat tissues were ground twice with either raw beef from four young (16-19 months) or four old (46-81 months) cattle. The meat had pH of 5.65 and was ground with a Seydelmann ME-130 (Seydelmann, Stuttgart, Germany) grinder through a plate with 3 mm openings. The ground meat was blended manually with solutions (all at pH 5.8) with various TCA and glycolytic ingredients (see below).
as §2, §3, §4
Samples were scanned, […], with a Foss NIRSystems OptiProbe™ 6500 Analyzer (Foss NIRSystems Inc., Maryland, USA) without opening of the package. The package was turned upside-down before measurements so that the meat would fall on the packaging film. The samples were scanned with three random placements of the probe on the package surface in order to increase the scanning area and reduce the measurement errors. Thirty-two scans for both reference and samples were acquired and averaged on each measured area. All measurements were performed at room temperature (approx. 20° C.) according to Khatri, et al. (Meat Sci. (2012) 91(3): 223-231). These spectra were used to predict OMb, MMb and DMb levels. Calibration was performed using comminuted meat with 10% w/w added water.
as §5
The statistical analysis was performed according to the approach described by Langsrud et al. (J. Appl. Statist. (2007) 34:1275-1296) and implemented in the 50-50 MANOVA software (http://www.langsrud.com/stat/program.htm). This program handles mixture designs as generalized categorical variables (generalized ANOVA). When using this method one can always formulate equivalent models that use the individual mixture variables as ordinary (one degree of freedom) regression variables. Then one arbitrary mixture variable has to be omitted (slack variable). […]

[2] = Day 1, adjusted mean ± standard error
[3] = Day 3, adjusted mean ± standard error
[4] = Day 6, adjusted mean ± standard error
[5] = Day 8, adjusted mean ± standard error

## O=C(O)CC(O)(CC(=O)O)C(=O)O [Citrate]
[1]; [2]
  L*: 34.2 ± 0.3
  a*: 13.0 ± 0.2*
  b*: 4.5 ± 0.1*
[1]; [3]
  L*: 33.6 ± 0.3*
  a*: 12.3 ± 0.2*
  b*: 4.4 ± 0.1*
[1]; [4]
  L*: 33.8 ± 0.3
  a*: 11.0 ± 0.3
  b*: 4.1 ± 0.2*
[1]; [5]
  L*: 33.9 ± 0.3
  a*: 10.3 ± 0.2
  b*: 4.0 ± 0.1*
Myoglobin in ground beef; Day 1
  DMb: 0.0 ± 0.0 %
  MMb: 6.6 ± 0.3%
  OMb: 93.4 ± 0.6%
Myoglobin in ground beef; Day 3
  DMb: 0.0 ± 0.0%
  MMb: 10.5 ± 0.6%
  OMb: 89.5 ± 0.6%
Myoglobin in ground beef; Day 6
  DMb: 0.5 ± 0.3%
  MMb: 20.4 ± 0.6%
  OMb: 79.1 ± 0.7%
Myoglobin in ground beef; Day 8
  DMb: 0.6 ± 0.2%
  MMb: 26.7 ± 0.7%
  OMb: 72.7 ± 0.8%
Myoglobin in ground beef; high oxygen packaging
  effect on myoglobin states (DMb, OMb, MMb), in words: nominal higher values for OMb
